Assay results published in patent US20240391948A1, “NOVEL COMPOUND THAT INHIBITS TNF-ALPHA GENERATION AND INFLAMMASOME ACTIVITY AND PREPARATION METHOD THEREFOR” (SHAPERON INC., priority 2021, published 2024).

Legend:
Format in all cases: cell-based
[1] = tested on: U937 cells (human monocytic cell line); experiment: Pam2CSK4-induced TNF-α secretion inhibition in PMA-differentiated U937 cells; details: U-937, U937 cells differentiated with PMA, read-out: TNF-α production inhibition grade (IC50)
Method in brief: (§1)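 U937 cells were PMA-differentiated into macrophages and treated with compound before inflammatory stimulus. TNF-α secretion was induced with Pam2CSK4 and IL-1β secretion with BzATP. IC50 (μM) values are graded A-D, with separate cut-offs per cytokine.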

[2] = tested on: J774A.1 (Mouse BALB/c monocyte macrophage cell line) cells; experiment: LPS+ATP-induced IL-1β secretion inhibition in J774A.1 cells; details: J774.A1, 1 μM compound, graded compared to taurodeoxycholic acid (positive control), read-out: IL-1β production inhibition grade
Method in brief: (§2)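 Mouse J774A.1 macrophages treated with 1 μM compound; TNF-α secretion measured after LPS stimulation and IL-1β secretion after LPS+ATP stimulation. Suppression graded against taurodeoxycholic acid: A over 100%, B 50–100%, C 20–50%, D under 20%.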

[3] = tested on: J774A.1 (Mouse BALB/c monocyte macrophage cell line) cells; experiment: LPS-induced TNF-α secretion inhibition in J774A.1 cells; details: J774.A1, 1 μM compound, graded compared to taurodeoxycholic acid (positive control), read-out: TNF-α production inhibition grade
Method in brief: as §2

[4] = tested on: U937 cells (human monocytic cell line); experiment: BzATP-induced IL-1β secretion inhibition in PMA-differentiated U937 cells; details: U-937, U937 cells differentiated with PMA, read-out: IL-1β production inhibition grade (IC50)
Method in brief: as §1

SMILES | IC50 [1] | inhibition at 1 µM [2] | inhibition at 1 µM [3] | IC50 [4]
C[C@H](CCC(=O)NC[C@@H](C)S(=O)(=O)O)[C@H]1CC[C@H]2[C@@H]3CC[C@@H]4CC(=O)CC[C@]4(C)[C@H]3CC[C@]12C [NC30023] | ≥ 2000 nM | 50 to 100% | > 100% | ≥ 200 nM
C[C@H](CCC(=O)N[C@H]1CCCC[C@H]1S(=O)(=O)O)[C@H]1CC[C@H]2[C@@H]3CC[C@@H]4C[C@H](O)CC[C@]4(C)[C@H]3C[C@H](O)[C@]12C [NC10042] | 500 to 1000 nM | < 20% | < 20% | ≥ 200 nM
CC[C@H]1[C@@H](O)[C@@H]2[C@H](CC[C@]3(C)[C@@H]([C@H](C)CCC(=O)N[C@@H](C)CS(=O)(=O)O)CC[C@@H]23)[C@@]2(C)CC[C@@H](O)C[C@@H]12 [NC40028] | 1000 to 2000 nM | 50 to 100% | < 20% | 100 to 200 nM
CC(C)N(CCS(=O)(=O)O)C(=O)CC[C@@H](C)[C@H]1CC[C@H]2[C@@H]3CC[C@@H]4C[C@H](O)CC[C@]4(C)[C@H]3C[C@H](O)[C@]12C [NC10024] | 1000 to 2000 nM | > 100% | < 20% | 50 to 100 nM
C[C@H](CCC(=O)N[C@@H]1CCCC[C@@H]1S(=O)(=O)O)[C@H]1CC[C@H]2[C@@H]3CC[C@@H]4C[C@H](O)CC[C@]4(C)[C@H]3CC[C@]12C [NC10082] | < 500 nM | > 100% | > 100% | < 50 nM
C[C@H](CCC(=O)N(C)CCS(=O)(=O)O)[C@H]1CC[C@H]2[C@@H]3CC[C@@H]4CC(=O)CC[C@]4(C)[C@H]3CC[C@]12C [NC30004] | 1000 to 2000 nM | 20 to 50% | 20 to 50% | ≥ 200 nM
CC[C@H]1[C@@H](O)[C@@H]2[C@H](C[C@H](O)[C@]3(C)[C@@H]([C@H](C)CCC(=O)N4CCC[C@@H](S(=O)(=O)O)C4)CC[C@@H]23)[C@@]2(C)CC[C@@H](O)C[C@@H]12 [NC50010] | ≥ 2000 nM | > 100% | < 20% | 100 to 200 nM
C[C@H](CCC(=O)N1CCC(S(=O)(=O)O)CC1)[C@H]1CC[C@H]2[C@@H]3CC[C@@H]4CC(=O)CC[C@]4(C)[C@H]3CC[C@]12C [NC30011] | 500 to 1000 nM | < 20% | < 20% | ≥ 200 nM
CC[C@H]1[C@@H](O)[C@@H]2[C@H](C[C@H](O)[C@]3(C)[C@@H]([C@H](C)CCC(=O)N(CCS(=O)(=O)O)C(C)C)CC[C@@H]23)[C@@]2(C)CC[C@@H](O)C[C@@H]12 [NC50007] | 1000 to 2000 nM | > 100% | < 20% | 50 to 100 nM
C[C@H](CS(=O)(=O)O)NC(=O)CC[C@@H](C)[C@H]1CC[C@H]2[C@@H]3CC[C@@H]4C[C@H](O)CC[C@]4(C)[C@H]3CC[C@]12C [NC10085] | ≥ 2000 nM | < 20% | < 20% | ≥ 200 nM
C[C@H](CCC(=O)NCCCO)[C@H]1CC[C@H]2[C@@H]3CC[C@@H]4C[C@H](O)CC[C@]4(C)[C@H]3CC[C@]12C [NC10054] | 1000 to 2000 nM | 50 to 100% | < 20% | 50 to 100 nM
CC[C@H]1[C@@H](O)[C@@H]2[C@H](CC[C@]3(C)[C@@H]([C@H](C)CCC(=O)NCCC(=O)O)CC[C@@H]23)[C@@]2(C)CC[C@@H](O)C[C@@H]12 [NC40002] | ≥ 2000 nM | 20 to 50% | < 20% | ≥ 200 nM
CC[C@H]1[C@@H](O)[C@@H]2[C@H](CC[C@]3(C)[C@@H]([C@H](C)CCC(=O)N(C)CCS(=O)(=O)O)CC[C@@H]23)[C@@]2(C)CC[C@@H](O)C[C@@H]12 [NC40004] | ≥ 2000 nM | 50 to 100% | < 20% | ≥ 200 nM
C[C@H](CCC(=O)N1CCC(S(=O)(=O)O)CC1)[C@H]1CC[C@H]2[C@@H]3CC[C@@H]4C[C@H](O)CC[C@]4(C)[C@H]3C[C@H](O)[C@]12C [NC10011] | < 500 nM | > 100% | > 100% | < 50 nM
CC[C@H]1[C@@H](O)[C@@H]2[C@H](CC[C@]3(C)[C@@H]([C@H](C)CCC(=O)N[C@H](C)CS(=O)(=O)O)CC[C@@H]23)[C@@]2(C)CC[C@@H](O)C[C@@H]12 [NC40029] | 1000 to 2000 nM | < 20% | < 20% | ≥ 200 nM
C[C@H](CCC(=O)Nc1ccc(S(=O)(=O)O)cc1)[C@H]1CC[C@H]2[C@@H]3CC[C@@H]4C[C@H](O)CC[C@]4(C)[C@H]3CC[C@]12C [NC10015] | ≥ 2000 nM | < 20% | < 20% | < 50 nM
C[C@H](CCC(=O)NC(C)(C)CS(=O)(=O)O)[C@H]1CC[C@H]2[C@@H]3CC[C@@H]4CC(=O)CC[C@]4(C)[C@H]3CC[C@]12C [NC30013] | 500 to 1000 nM | 50 to 100% | 50 to 100% | ≥ 200 nM
C[C@H](CCC(=O)N1CCC[C@H](S(=O)(=O)O)C1)[C@H]1CC[C@H]2[C@@H]3[C@H](O)C[C@@H]4C[C@H](O)CC[C@]4(C)[C@H]3C[C@H](O)[C@]12C [NC20009] | ≥ 2000 nM | < 20% | < 20% | < 50 nM
CC[C@H]1[C@@H](O)[C@@H]2[C@H](C[C@H](O)[C@]3(C)[C@@H]([C@H](C)CCC(=O)N[C@@H](C)CS(=O)(=O)O)CC[C@@H]23)[C@@]2(C)CC[C@@H](O)C[C@@H]12 [NC50028] | 1000 to 2000 nM | 50 to 100% | < 20% | ≥ 200 nM
C[C@H](CCC(=O)N(CCS(=O)(=O)O)Cc1ccccc1)[C@H]1CC[C@H]2[C@@H]3CC[C@@H]4C[C@H](O)CC[C@]4(C)[C@H]3C[C@H](O)[C@]12C [NC10022] | 500 to 1000 nM | 50 to 100% | 20 to 50% | 100 to 200 nM
CC[C@H]1[C@@H](O)[C@@H]2[C@H](CC[C@]3(C)[C@@H]([C@H](C)CCC(=O)N4CC(S(=O)(=O)O)C4)CC[C@@H]23)[C@@]2(C)CC[C@@H](O)C[C@@H]12 [NC40012] | 500 to 1000 nM | 50 to 100% | < 20% | ≥ 200 nM
C[C@H](CCC(=O)N(C)CCS(=O)(=O)O)[C@H]1CC[C@H]2[C@@H]3[C@H](O)C[C@@H]4C[C@H](O)CC[C@]4(C)[C@H]3C[C@H](O)[C@]12C [NC20004] | 500 to 1000 nM | > 100% | < 20% | < 50 nM
CC[C@H]1[C@@H](O)[C@@H]2[C@H](CC[C@]3(C)[C@@H]([C@H](C)CCC(=O)N4CCC[C@H](S(=O)(=O)O)C4)CC[C@@H]23)[C@@]2(C)CC[C@@H](O)C[C@@H]12 [NC40009] | 1000 to 2000 nM | < 20% | < 20% | 100 to 200 nM
CC[C@H]1[C@@H](O)[C@@H]2[C@H](C[C@H](O)[C@]3(C)[C@@H]([C@H](C)CCC(=O)N[C@@H](CO)CS(=O)(=O)O)CC[C@@H]23)[C@@]2(C)CC[C@@H](O)C[C@@H]12 [NC50024] | ≥ 2000 nM | 20 to 50% | < 20% | ≥ 200 nM
C[C@H](CCC(=O)N1CC(S(=O)(=O)O)C1)[C@H]1CC[C@H]2[C@@H]3CC[C@@H]4CC(=O)CC[C@]4(C)[C@H]3CC[C@]12C [NC30012] | ≥ 2000 nM | 20 to 50% | < 20% | ≥ 200 nM
C[C@H](CCC(=O)N1CCC(S(=O)(=O)O)CC1)[C@H]1CC[C@H]2[C@@H]3[C@H](O)C[C@@H]4C[C@H](O)CC[C@]4(C)[C@H]3C[C@H](O)[C@]12C [NC20011] | ≥ 2000 nM | 50 to 100% | < 20% | 50 to 100 nM
CC[C@H]1[C@@H](O)[C@@H]2[C@H](CC[C@]3(C)[C@@H]([C@H](C)CCC(=O)N[C@H](CC(C)C)CS(=O)(=O)O)CC[C@@H]23)[C@@]2(C)CC[C@@H](O)C[C@@H]12 [NC40031] | 1000 to 2000 nM | < 20% | < 20% | ≥ 200 nM
CC[C@H]1[C@@H](O)[C@@H]2[C@H](CC[C@]3(C)[C@@H]([C@H](C)CCC(=O)N[C@@H](Cc4ccccc4)CS(=O)(=O)O)CC[C@@H]23)[C@@]2(C)CC[C@@H](O)C[C@@H]12 [NC40014] | 500 to 1000 nM | > 100% | < 20% | < 50 nM
C[C@H](CCC(=O)N[C@@H](Cc1ccccc1)CS(=O)(=O)O)[C@H]1CC[C@H]2[C@@H]3CC[C@@H]4CC(=O)CC[C@]4(C)[C@H]3CC[C@]12C [NC30014] | 500 to 1000 nM | 20 to 50% | < 20% | ≥ 200 nM
